# PubChem BioAssay (NCI)
#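 1) Cells in 96-well plates. 2) Compound, 48 h, 5 concentrations. 3) Linear interpolation between surrounding doses. 4) Unreached endpoint = highest concentration. At the TGI there is no net growth.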
# Assays:
# Experiment in all cases: NCI tumour cell line growth inhibition, 48 h
# [1] = test system: UACC-62 melanoma
# [2] = test system: NCI-H23 lung
# [3] = test system: IGROV1 ovarian
# [4] = test system: SF-295 CNS
# [5] = test system: HOP-62 NSCLC
# [6] = test system: EKVX NSCLC
# [7] = test system: MDA-MB-231 breast
# [8] = test system: NCI-H226 lung
# [9] = test system: 786-0 renal
# [10] = test system: M14 melanoma
# [11] = test system: SF-539 CNS
# [12] = test system: HS 578T breast
# [13] = test system: NCI-H522 lung
# [14] = test system: SK-MEL-2 melanoma
# [15] = test system: HCC-2998 colon
# [16] = test system: SF-268 CNS
# [17] = test system: MDA-N
# [18] = test system: HCT-15 colon
# [19] = test system: OVCAR-5 ovarian
# [20] = test system: CAKI-1 renal
# [21] = test system: NCI-H460 lung
# [22] = test system: OVCAR-8 ovarian
# [23] = test system: ACHN renal
# [24] = test system: SK-OV-3 ovarian
# [25] = test system: SN12C renal
# [26] = test system: UO-31 renal
# [27] = test system: DU-145 prostate
# [28] = test system: COLO 205 colon
# [29] = test system: NCI/ADR-RES ovarian
# [30] = test system: TK-10 renal
# [31] = test system: KM12 colon
# [32] = test system: SK-MEL-5 melanoma
# [33] = test system: U251 CNS
# [34] = test system: SNB-19 CNS
# [35] = test system: SW-620 colon
# [36] = test system: HT29 colon
# [37] = test system: MDA-MB-435
# [38] = test system: OVCAR-3 ovarian
# [39] = test system: T-47D breast
# [40] = test system: A498 renal
# [41] = test system: MOLT-4 leukemia
# [42] = test system: PC-3 prostate
# [43] = test system: A549 NSCLC
# [44] = test system: MALME-3M melanoma
# [45] = test system: HCT-116 colon
# [46] = test system: RPMI-8226 leukemia
# [47] = test system: OVCAR-4 ovarian
# [48] = test system: RXF 393 renal
# [49] = test system: SK-MEL-28 melanoma
# [50] = test system: MCF7 breast
# [51] = test system: LOX IMVI melanoma
# [52] = test system: SNB-75 CNS
# [53] = test system: HL-60(TB) leukemia
# [54] = test system: UACC-257 melanoma
# [55] = test system: HOP-92 NSCLC
# [56] = test system: SR leukemia
# [57] = test system: K-562 leukemia
compound,measurement,setting,value
COc1ccc(NC(=O)Oc2ccc3c(C)cc(=O)oc3c2)c(OC)c1 (tested in a mixture with another compound),TGI,[1],> 100 µM
same,TGI,[2],> 100 µM
same,TGI,[3],> 100 µM
same,TGI,[4],> 100 µM
same,TGI,[5],> 100 µM
same,TGI,[6],> 100 µM
same,TGI,[7],> 100 µM
same,TGI,[8],> 100 µM
same,TGI,[9],> 100 µM
same,TGI,[10],> 100 µM
same,TGI,[11],> 100 µM
same,TGI,[12],> 100 µM
same,TGI,[13],> 100 µM
same,TGI,[14],> 100 µM
same,TGI,[15],> 100 µM
same,TGI,[16],> 100 µM
same,TGI,[17],> 100 µM
same,TGI,[18],> 100 µM
same,TGI,[19],> 100 µM
same,TGI,[20],> 100 µM
same,TGI,[21],> 100 µM
same,TGI,[22],> 100 µM
same,TGI,[23],> 100 µM
same,TGI,[24],> 100 µM
same,TGI,[25],> 100 µM
same,TGI,[26],> 100 µM
same,TGI,[27],> 100 µM
same,TGI,[28],> 100 µM
same,TGI,[29],> 100 µM
same,TGI,[30],> 100 µM
same,TGI,[31],> 100 µM
same,TGI,[32],> 100 µM
same,TGI,[33],> 100 µM
same,TGI,[34],> 100 µM
same,TGI,[35],> 100 µM
same,TGI,[36],> 100 µM
same,TGI,[37],> 100 µM
same,TGI,[38],> 100 µM
same,TGI,[39],> 100 µM
same,TGI,[40],86.1 µM
same,TGI,[41],> 100 µM
same,TGI,[42],> 100 µM
same,TGI,[43],> 100 µM
same,TGI,[44],> 100 µM
same,TGI,[45],> 100 µM
same,TGI,[46],> 100 µM
same,TGI,[47],> 100 µM
same,TGI,[48],> 100 µM
same,TGI,[49],> 100 µM
CC(C)(C)C1=C(Br)C(F)(C(C)(C)C)OP1(=O)c1ccccc1 (stereo not drawn),TGI,[1],29.3 µM
same,TGI,[2],37.9 µM
same,TGI,[3],29.7 µM
same,TGI,[4],37 µM
same,TGI,[5],30 µM
same,TGI,[6],33.6 µM
same,TGI,[8],31 µM
same,TGI,[9],29.6 µM
same,TGI,[10],28.5 µM
same,TGI,[50],30 µM
same,TGI,[11],33.2 µM
same,TGI,[12],53.8 µM
same,TGI,[13],30.8 µM
same,TGI,[14],36.5 µM
same,TGI,[15],28.4 µM
same,TGI,[16],36.2 µM
same,TGI,[17],34.7 µM
same,TGI,[18],36.9 µM
same,TGI,[19],36.6 µM
same,TGI,[20],25.8 µM
same,TGI,[21],35.6 µM
same,TGI,[22],36.4 µM
same,TGI,[51],36.4 µM
same,TGI,[23],30 µM
same,TGI,[52],30.9 µM
same,TGI,[24],32.2 µM
same,TGI,[25],29.5 µM
same,TGI,[53],16.2 µM
same,TGI,[26],59.4 µM
same,TGI,[27],32 µM
same,TGI,[28],29.4 µM
same,TGI,[29],30.8 µM
same,TGI,[30],33.1 µM
same,TGI,[31],33.7 µM
same,TGI,[32],22.9 µM
same,TGI,[33],31.3 µM
same,TGI,[34],30.6 µM
same,TGI,[35],32.3 µM
same,TGI,[36],35 µM
same,TGI,[37],29.9 µM
same,TGI,[38],28.8 µM
same,TGI,[39],42.1 µM
same,TGI,[54],30.9 µM
same,TGI,[40],40 µM
same,TGI,[42],32 µM
same,TGI,[43],36.3 µM
same,TGI,[44],32 µM
same,TGI,[45],31.8 µM
same,TGI,[55],34.2 µM
same,TGI,[56],31.4 µM
same,TGI,[57],22.9 µM
same,TGI,[47],23 µM
same,TGI,[48],24.5 µM
same,TGI,[49],34.1 µM
